The values below come from ChEMBL document CHEMBL1154415, “Population pharmacokinetics and pharmacodynamics of continuous versus short-term infusion of imipenem-cilastatin in critically ill patients in a randomized, controlled trial” (Antimicrob Agents Chemother, 2007).

The clearance is the rate of elimination divided by the concentration.

One data set deals with Serum. As to the kind of experiment: Protein binding in human serum by ultrafiltration technique in presence of cilastatin. The format is ADME, cell-free.
Data set [1] in a line: Total clearance in nosocomial pneumonia patient at 1 g administered every 8 hrs for 3 days as shot-term iv infusion for 40 mins or at a loading dose of 1 g and maintenance dose of 2 g administered daily for 3 days as continuous iv infusion presence of cilastatin maintenance dose administered as continuous fusion at 8 hrs interval over 72 hrs in presence of cilastatin. The class given is ADME, organism-based. The following applies: human, in vivo.

Data set [2] in a line: Plasma concentration in nosocomial pneumonia patient at loading dose of 1 g and maintenance dose of 2 g administered daily for 3 days as continuous infusion measured after 72 hrs in presence of cilastatin. The format is ADME, organism-based. To be noted: human, iv.
The species named for the next data set is Homo sapiens. Nature of the data set: Toxicity in nosocomial pneumonia patient assessed as induction of seizures in presence of cilastin. The class given is organism-based. The following applies: in vivo.

As for `C[C@@H](O)[C@H]1C(=O)N2C(C(=O)O)=C(SCCN=CN)C[C@H]12` [IMIPENEM ANHYDROUS], the Activity in the data set on Serum is recorded as 20%; in the data set listed under Homo sapiens, “Non-toxic”. Besides, in data set [1], the clearance is 205 mL/min. Further, the concentration at 72 h in data set [2] turned out to be 8650 ng/mL.
